Results from PubChem BioAssay (NCI).
“And” between values parts separate entries of the source, which are not always exact repeats. Equal values may be shown once.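 Method: 48-hour compound exposure of cells in 96-well plates, five concentrations, linear interpolation of endpoints. At the GI50, growth is halved. Definition used: TGI = concentration required for complete inhibition of growth.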

Tests used:
Test in all cases: NCI tumour cell line growth inhibition, 48 h
SF-295 CNS = test system: SF-295 CNS
NCI/ADR-RES ovarian = test system: NCI/ADR-RES ovarian
NCI-H23 lung = test system: NCI-H23 lung
IGROV1 ovarian = test system: IGROV1 ovarian
SNB-75 CNS = test system: SNB-75 CNS
RXF 393 renal = test system: RXF 393 renal
UACC-257 melanoma = test system: UACC-257 melanoma
HL-60(TB) leukemia = test system: HL-60(TB) leukemia
SK-OV-3 ovarian = test system: SK-OV-3 ovarian
A498 renal = test system: A498 renal

SMILES	TGI (SF-295 CNS) [µM]	TGI (NCI/ADR-RES ovarian) [µM]	TGI (NCI-H23 lung) [µM]	TGI (IGROV1 ovarian) [µM]	TGI (SNB-75 CNS)	TGI (RXF 393 renal) [µM]	TGI (UACC-257 melanoma) [µM]	TGI (HL-60(TB) leukemia) [µM]	TGI (SK-OV-3 ovarian)	TGI (A498 renal) [µM]	GI50 (NCI/ADR-RES ovarian) [µM]	GI50 (SNB-75 CNS) [nM]	GI50 (SK-OV-3 ovarian) [nM]	GI50 (A498 renal) [nM]
c1ccc([P+](c2ccccc2)(c2ccccc2)c2ccc([P+](c3ccccc3)(c3ccccc3)c3ccccc3)cc2)cc1	> 100	> 100	> 100	> 100	> 100 µM	> 100	> 100	> 100	> 100 µM	> 100	–	–	–	–
CC1(C)[C@@H]2CC[C@@]1(C)[C@H](O)[C@@H]2SCc1ccccc1	33	33	29.1	37.4	49.1 µM	33	32.5	54.3	44.9 µM	0.0578	–	–	–	–
CCOC(=O)C1CCCCc2sc(N)c(C#N)c21 (stereo unspecified)	–	–	> 100	> 100	> 100 µM	> 100	> 100	> 100	–	> 100	–	–	–	–
Cc1ccc(/C=C2\CN(C)CC3C2=NC(=S)NC3c2ccc(C)cc2)cc1 (stereo unspecified)	> 100	> 100	> 100	> 80.1	> 100 µM	> 87.1	> 100	> 100	> 100 µM	> 100	–	–	–	–
COC(=O)/C=C/c1ccc2c(c1)CC1(Cc3ccccc3C1)C2	> 100	> 100	> 100	> 100	–	> 100	> 100	67.3	> 100 µM	> 100	–	–	–	–
Cc1cn([C@H]2[C@@H](CO)C[C@H]2O)c(=O)[nH]c1=O	> 100	> 100	> 100	> 100	> 100 µM	> 100	> 100	> 100	–	> 100	–	–	–	–
COc1ccc(-c2c3ccccc3c(-c3ccc(OCCCCCBr)cc3)c3ccccc23)cc1	> 100	–	–	> 100	–	–	–	> 100	> 100 µM	–	–	–	–	–
CCCCCCOP(=O)(OCCCCCC)OC(C(=O)OC)C(F)(F)F (stereo unspecified)	> 100	> 100	> 100	> 100	> 100 µM	–	> 100	> 100	> 100 µM	–	–	–	–	–
O=S1(=O)OCCOS(=O)(=O)C1Cc1nc2ccccc2[nH]1	> 100	> 100	> 100	–	–	–	> 100	88.4	–	–	–	–	–	–
COc1cc2cc(C(=O)N3CC(CCl)c4c3cc([N+](C)(C)Cc3ccc([N+](=O)[O-])n3C)c3ccccc43)[nH]c2c(OC)c1OC (stereo unspecified)	> 38.8	4.38	2.49	4.23	7.18 µM	–	5.4	8.16	> 100 µM	–	–	–	–	–
CC(C)(C)c1c(C(C)(C)C)c(=O)c1=O	> 100	> 100	> 100	–	> 100 µM	> 100	> 100	> 100	> 100 µM	> 100	–	–	–	–
COc1ccc(C2=C(OC(=O)N(C)C)c3cccn3-c3cc(Cl)ccc3S2)cc1	> 10	–	> 10	> 10	> 10 µM	> 10	> 10	> 10	> 10 µM	–	–	–	–	–
CC(=O)CC1(C)OC(N)=C(C#N)C1(C#N)C#N (stereo unspecified)	> 100	> 100	> 100	> 100	> 100 µM	> 100	> 100	–	> 100 µM	> 100	–	–	–	–
CC12CC(c3ccccc3O1)C(C(=O)Nc1cccc(F)c1)C(=O)N2 (stereo unspecified)	> 100	81.9	79.3	> 100	–	–	> 100	> 100	> 100 µM	> 100	–	–	–	–
C=C1CC(Cn2cc(Br)c(=O)[nH]c2=O)(c2ccc(-c3ccccc3)cc2)OC1=O (stereo unspecified)	18.5	4.82	3.4	2.96	17.6 µM	–	2.53	–	15.9 µM	2.33	–	–	–	–
Cc1ccc2c(c1)CC1(C2=O)[C@H](c2ccccc2)C2C(=O)c3ccc(C)cc3C2[C@H]1c1ccccc1 (stereo partly specified)	> 100	–	> 100	> 100	> 100 µM	> 100	> 100	> 100	> 100 µM	> 100	–	–	–	–
OC12CCCCCC1(N1CCOCC1)c1ccccc12 (stereo unspecified)	> 100	–	> 100	> 100	> 100 µM	> 100	> 100	> 100	> 100 µM	> 100	–	–	–	–
CC(C)C1CC(CO)(CNc2cc(Cl)nc(N)n2)C1 (stereo unspecified)	> 100	> 100	–	> 100	–	> 100	> 100	> 100	> 100 µM	65.9	–	–	–	–
C=CCOC(=O)CCCCCCCCCCCCCCCOC(=O)C1=C(CCC[C@@H](C)O[Si](C)(C)C(C)(C)C)NC(=O)N2[C@H](CC3(CC/C=C\[C@H](CC)O[Si](C(C)C)(C(C)C)C(C)C)OCCO3)CC[C@H]12	> 100	> 100	> 100	–	> 100 µM	–	> 100	–	> 100 µM	> 100	–	–	–	–
COC(=O)n1c(C[P+](c2ccccc2)(c2ccccc2)c2ccccc2)cc2ccccc21	5.9	–	7.77	12	–	14.4	–	6.12	3.59 µM	22.7	–	–	–	–
O=C1CSC2(CC(/C=C/c3ccccc3Br)=NN2c2cccc(S(=O)(=O)O)c2)N1c1nc2ccccc2s1 (stereo unspecified)	–	> 100	> 100	> 100	> 100 µM	> 100	> 100	> 100	–	> 100	–	–	–	–
CC(C)(C)CC(C)(C)c1ccc(OCCOCC[N+](C)(C)Cc2ccccc2)cc1	28.4	38.8	6.01	–	2.34 µM and 5.55 µM	10.3	3.03	6.31	2.94 µM and 25.7 µM	–	16.2	962	1460	1540
COc1ccc(-c2nc(-c3cnccn3)n(C3OC(CO)C(O)C(O)C3O)n2)cc1 (stereo unspecified)	> 100	> 100	> 100	> 100	> 100 µM	> 100	> 100	> 100	> 100 µM	–	–	–	–	–
